In PMC10683482, “Offsetting Low-Affinity Carbohydrate Binding with Covalency to Engage Sugar-Specific Proteins for Tumor-Immune Proximity Induction” (ACS Central Science, 2023):

Tested on: Hek-PSMA cells
Experiment: ADCC reporter assay with polyclonal human IgG, column step (Figure 3)
Assay type: cell-based
Conditions: 50 μM compound with 230 μM human IgG 72 h, column washing step
Procedure: Next, we investigated the potential ability of rhamnose cARMs and noncovalent ARM analogs to induce immune proximity with cancer targets. […] These compounds were then evaluated for their capacity to activate immune cells against PSMA cancer targets (Hek-PSMA cells) in an ADCC reporter assay (Figure 3). […] The formation of this complex may be prevented by the alkyl linker, which could adopt a fixed conformation via hydrophobic collapse.
Figure 3 ADCC reporter assay to evaluate cARM vs ARM immune function using polyclonal anti-rhamnose antibodies. Top: chemical structures of compounds evaluated. Bottom: ADCC assay. Each cARM/ARM (50 μM) was incubated with polyclonal human IgG (230 μM) for 72 h and passed through a Millipore centrifugation column. Antibody solutions were then resuspended to experimental concentrations and added to preplated Hek-P cells (50,000 cells). To this cell solution, luciferase-expressing jurkat cells were added and incubated for 24 h. Activation of jurkat was determined as a measure of luciferase expression with a BioGlo assay kit.
General Notes and Materials
ELISA - General notes and Materials […]
Plate absorbance was measured at 450 nm using a Tecan Spark Plate Reader. […]
Pre-cast Tris-Glycine Gels (4-20%) were purchased from Fisher Scientific (XP04202BOX). […] Gel fluorescence was imaged using a GE Typhoon imager (Cy2 channel for fluorescein, Cy5 channel for A647). […]

SMILES | immune activation (jurkat luciferase)
C[C@@H]1O[C@@H](OCc2cn(CCc3cn(C(=O)OCCNC(=O)CCCCCNC(=O)CCCCCNC(=O)CCCCCNC(=O)NCCCC[C@H](NC(=O)N[C@@H](CCC(=O)O)C(=O)O)C(=O)O)cn3)nn2)[C@H](O)[C@H](O)[C@H]1O [compound 10] | successfully mediated specific immune activation
C[C@@H]1O[C@@H](OCc2cn(CCCNC(=O)OCCNC(=O)CCCCCNC(=O)CCCCCNC(=O)CCCCCNC(=O)NCCCC[C@H](NC(=O)N[C@@H](CCC(=O)O)C(=O)O)C(=O)O)nn2)[C@H](O)[C@H](O)[C@H]1O [compound 11] | failed to induce immune activation
